Here are results for five compounds from US3978071A, “Substituted phenylalkanoic acids and derivatives” (Yoshitomi Pharmaceutical Industries, Ltd., priority 1973, dated 1976).

The subject of experiment [1] is o-phenyl-p-benzoquinone induced stretch symptoms. Description: Analgesic Action (Phenylquinone Method). Format: in vivo, dd-strain male mice. Particulars: Mus musculus, po, mice, 1 hour before 0.02% o-phenyl-p-benzoquinone i.p., dose required for 50% inhibition of stretch symptoms (30 minutes). How it is done:
According to the method of Hendershot et al. (J. Pharmacol. Exptl. Therap., 125, 237 (1959)), to one group of 6 dd-strain male mice each weighing about 20 g a test solution containing a test compound was orally administered and 1 hour later 0.2 ml/20 g of body weight of 0.02% o-phenyl-p-benzoquinone solution was intraperitoneally injected. The frequency of stretch symptoms thus induced was measured for 30 minutes, and compared with that of a control group, and the inhibition percentage (effect) was calculated. The ED50 the dose required for 50% inhibition, was calculated from the dose-response curve.

Experiment [2] has as its system carrageenin edema of the hind paw. Description: Anti-inflammatory Action, Carrageenin Edema Method. Format: in vivo, Donryu-strain male rats. Conditions: Rattus norvegicus, po, rats, 1 hour before 1% carrageenin s.c.; paw bulk 2 hours after phlogogen; dose required for 50% inhibition. Here is the method: i. Carrageenin Edema Method
According to the method of Winter et al. (Proc. Soc. Exptl. Biol. Med., 111, 544 (1962)), to one group of 5 Donryu-strain male rats each weighing about 130 g a test solution containing a test compound was administered orally. One hour later 0.05 ml of 1% carrageenin solution as phlogogenic substance was subcutaneously injected to the paw of the hind leg. And 2 hours after the administration of phlogogen the bulk of the paw was measured in order to obtain the increment percentage over that before administration. The ratio of bulk increment between a control group and a test group was calculated as inhibition percentage. The ED50, the dose required for 50% inhibition, was calculated from the dose-response curve.

The subject of experiment [3] is ultraviolet erythema. Briefly: Anti-inflammatory Action, Ultraviolet Erythema Method. The experiment is classed as in vivo. Conditions: Cavia porcellus, light or radiation study, po, guinea pigs, equal amounts 1 hour before and after irradiation; total dose required for 50% efficacy rate. An excerpt: ii. Ultraviolet Erythema Method:
Using guinea pigs weighing 250-450 g, a rubber plate with 3 holes of 7 mm in diameter was fitted to the abdomen, hair of which had been removed in advance, and light was given by a mercury lamp (300 W) at the distance of 15 cm for 150 seconds. Two hours later the degree of erythema formation was marked according to the method of Winder et al. (Arch. Intern. Pharmacodyn., 116, 261 (1958); 1 for distinct erythema, 0.5 for indistinct erythema and 0 for no erythema) and the efficacy rate was calculated, based on the criterion that 1.5 or less of total marks be effective. Equal amounts of the test solution were orally given 1 hour before and after the irradiation, respectively. The ED50, the total dose required for 50% efficacy rate, was calculated from the dose-response curve.

For the compound `CC(C(=O)O)c1ccc(-c2cn3ccccc3n2)cc1` (stereo not drawn) [A, 2-[4-(imidazo[1,2-a]pyridin-2-yl)phenyl]propionic acid], the ED50 – broadly, the midpoint of the dose-response relation – in experiment [1] was determined as 0.1 mg/kg; in experiment [2] it was 8 mg/kg; in experiment [3], 6 mg/kg.

Take `CC(C(=O)O)c1ccc(-c2cn3ccccc3n2)c(Cl)c1` (stereo not drawn) [B, 2-[3-chloro-4-(imidazo[1,2-a]pyridin-2-yl)phenyl]propionic acid]: the ED50 worked out at 0.2 mg/kg in experiment [1], 25 mg/kg in experiment [2] and 1 mg/kg in experiment [3].

For the compound `CC(C(=O)O)c1ccc(-c2cn3ccccc3n2)c(F)c1` (stereo not drawn) [C, 2-[3-fluoro-4-(imidazo[1,2-a]pyridin-2-yl)phenyl]propionic acid], the ED50 in experiment [1] turned out to be 0.1 mg/kg; in experiment [2] it was 25 mg/kg; in experiment [3] it was 2.5 mg/kg.

As to `CC(C(=O)O)c1ccc(-c2cn3ccsc3n2)cc1` (stereo not drawn) [D, 2-[4-(imidazo[2,1-b]thiazol-6-yl)phenyl]propionic acid], the ED50 in experiment [1] was 13 mg/kg; in experiment [2], 50 mg/kg; in experiment [3], 2.5 mg/kg.

On to `CC(C(=O)O)c1ccc(-c2cn3ccsc3n2)c(Cl)c1` (stereo not drawn) [E, 2-[3-chloro-4-(imidazo[2,1-b]thiazol-6-yl)phenyl]propionic acid], for which the ED50 in experiment [1] is 0.5 to 1 mg/kg; in experiment [2], 100 mg/kg; in experiment [3], 5 mg/kg.
